Patent publication US9523100B2, “Pesticidal compositions and related methods” (DOW AGROSCIENCES LLC, priority 2013, dated 2016)
Where two headings read alike, the source gives them in different places.

Legend:
[1] = tested on: Green Peach Aphid (GPA) (Myzus persicae) (MYZUPE); assay: Bioassay for Green Peach Aphid (GPA), foliar spray on cabbage seedlings; format: in vivo; settings: 72 h, read-out: GPA 200 ppm, % Control (or Mortality) rating
Excerpt: Bioassay for Green Peach Aphid (GPA) (Myzus persicae) (MYZUPE)
The green peach aphid (Myzus persicae) is the most significant aphid pest of peach trees, causing decreased growth, shriveling of the leaves, and the death of various tissues. It is also hazardous because it acts as a vector for the transport of plant viruses, such as potato virus Y and potato leafroll virus to members of the nightshade/potato family Solanaceae, and various mosaic viruses to many other food crops. GPA attacks such plants as broccoli, burdock, cabbage, carrot, cauliflower, daikon, eggplant, green beans, lettuce, macadamia, papaya, peppers, sweet potatoes, tomatoes, watercress, and zucchini, among other plants GPA also attacks many ornamental crops such as carnation, chrysanthemum, flowering white cabbage, poinsettia, and roses. GPA has developed resistance to many pesticides.
Cabbage seedlings grown in 3-inch pots, with 2-3 small (3-5 cm) true leaves, were used as test substrate. The seedlings were infested with 20-50 GPA (wingless adult and nymph stages) one day prior to chemical application. Four pots with individual seedlings were used for each treatment. Test compounds (2 mg) were dissolved in 2 mL of acetone/methanol (1:1) solvent, forming stock solutions of 1000 ppm test compound. The stock solutions were diluted 5× with 0.025% Tween 20 in water to obtain the solution at 200 ppm test compound. A hand-held aspirator-type sprayer was used for spraying a solution to both sides of […] leaves until runoff. Reference plants (solvent check) were sprayed with the diluent only containing 20% by volume of acetone/methanol (1:1) solvent. Treated plants were held in a holding room for three days at approximately 25° C. and ambient relative humidity (RH) prior to grading. Evaluation was conducted by counting the number of live aphids per plant under a microscope. Percent control was measured by using Abbott's correction formula (W. S. Abbott, “A Method of Computing the Effectiveness of an Insecticide” J. Econ. Entomol. 18 (1925), pp. 265-267) as follows. Corrected % Control=100*(X−Y)/X
X=No. of live aphids on solvent check plants and
Y=No. of live aphids on treated plants
Biological Data for Green Peach Aphid (GPA) (MYZUPE) and Sweetpotato Whitefly-Crawler (WF) (BEMITA)” (see table section).
(§1) The mortality efficiency of the pesticidal compounds against GPA and WF insects was determined after treatment.

[2] = tested on: Sweetpotato Whitefly-Crawler (WF) (Bemisia tabaci) (BEMITA); assay: Insecticidal test for Sweetpotato Whitefly-Crawler (WF) in foliar spray assay on cotton plants; format: in vivo; settings: 216 h, read-out: WF 200 ppm, % Control (or Mortality) rating
Excerpt: Insecticidal Test for Sweetpotato Whitefly-Crawler (WF) (Bemisia tabaci) (BEMITA) in Foliar Spray Assay
The sweetpotato whitefly (Bemisia tabaci) has been reported as a serious pest of cultivated crops world-wide. It has an extremely wide host range attacking more than 500 species of plants from 63 plant families. Weeds often serve as alternate hosts of crop pests. Direct feeding damage is caused by the piercing and sucking sap from the foliage of plants. This feeding causes weakening and early wilting of the plant and reduces the plant growth rate and yield Indirect damage results by the accumulation of honeydew produced by the whiteflies. Honeydew serves as a substrate for the growth of black sooty mold on leaves and fruit reducing photosynthesis and lessens the market value of the plant or yield. […] The sweetpotato whitefly is considered the most common and important whitefly vector of plant viruses worldwide.
Cotton plants (Gossypium hirsutum) grown in 3-inch pots, with 1 small (4-5 cm) true leaves, were used as test substrate. The plants were infested with 200-400 whitefly eggs 4-5 days prior to chemical application. Four pots with individual plants were used for each treatment. Test compounds (2 mg) were dissolved in 1 mL of acetone solvent, forming stock solutions of 2000 ppm test compound. The stock solutions were diluted 10× with 0.025% Tween 20 in water (diluents) to obtain the solution at 200 ppm test compound. A hand-held aspirator-type sprayer was used for spraying a solution to both sides of cotton leaves until runoff. Reference plants (solvent check) were sprayed with the diluent only containing 10% by volume of acetone solvent. Treated plants were held in a holding room for 9 days at approximately 25° C. and ambient relative humidity (RH) prior to grading. Evaluation was conducted by counting the number of live 3-4 nymph stage per plant under a microscope. Percent control was measured by using Abbott's correction formula (W. S. Abbott, “A Method of Computing the Effectiveness of an Insecticide” J. Econ. Entomol. 18 (1925), pp. 265-267) as follows.
Biological Data for Green Peach Aphid (GPA) (MYZUPE) and Sweetpotato Whitefly-Crawler (WF) (BEMITA)” (see table section). Corrected % Control=100*(X−Y)/X
X=No. of live nymphs on solvent check plants and
Y=No. of live nymphs on treated plants
as §1

[3] = 200 ppm foliar spray on cabbage seedlings, graded after three days, Abbott corrected % control
[4] = 200 ppm foliar spray on cotton plants, graded after 9 days, Abbott corrected % control

Row | SMILES | mortality at 200 ppm [1, 3] [%] | mortality at 200 ppm [2, 4] [%] | mortality at 200 ppm ([1]; foliar) [%] | mortality at 200 ppm ([2]; foliar) [%]
1 | CCN(C(=O)CCCN1CCCC1=O)c1cn(-c2cccnc2)nc1Cl [FA33, N-(3-Chloro-1-(pyridin-3-yl)-1H-pyrazol-4-yl)-N-ethyl-4-(2-oxopyrrolidin-1-yl)butanamide] | 80 to 100 | 80 to 100 | – | –
2 | CCN(C(=O)CCN(C)C(=O)OC(C)(C)C)c1cn(-c2cccnc2)nc1Cl [Compound F52, tert-Butyl (3-((3-chloro-1-(pyridin-3-yl)-1H-pyrazol-4-yl)(ethyl)amino)-3-oxopropyl)(methyl) carbamate] | – | – | 80 to 100 | 80 to 100
3 | CN(CC(=O)N(CC1CC1)c1cn(-c2cccnc2)nc1Cl)C(=O)OC(C)(C)C [Compound F76, tert-Butyl (2-((3-chloro-1-(pyridin-3-yl)-1H-pyrazol-4-yl)(cyclopropylmethyl)amino)-2-oxoethyl) (methyl)carbamate] | – | – | 0 to 80 | 0 to 80
4 | CCN(C(=O)CC/C(=N/OCc1ccc(C(F)(F)F)nc1)c1cccs1)c1cn(-c2cccnc2)nc1Cl [FA37, (Z)-N-(3-Chloro-1-(pyridin-3-yl)-1H-pyrazol-4-yl)-N-ethyl-4-(thiophen-2-yl)-4-(((6-(trifluoromethyl)pyridin-3-yl)methoxy)imino)butanamide] | 0 to 80 | 80 to 100 | – | –
5 | CCN(C(=O)CC/C(C)=N/OCc1ncc(C(F)(F)F)cc1Cl)c1cn(-c2cccnc2)nc1Cl [FA24, (E/Z)-N-(3-Chloro-1-(pyridin-3-yl)-1H-pyrazol-4-yl)-4-(((3-chloro-5-(trifluoromethyl)pyridin-2-yl)methoxy)imino)-N-ethylpentanamide] | 0 to 80 | – | – | –
6 | CCN(C(=O)CCN1CCCCC1=O)c1cn(-c2cccnc2)nc1Cl [Compound F8, N-(3-Chloro-1-(pyridin-3-yl)-1H-pyrazol-4-yl)-N-ethyl-3-(2-oxopiperidin-1-yl)propanamide] | 80 to 100 | 80 to 100 | – | –
7 | CCN(C(=O)CCC(=O)NCC1CC1)c1cn(-c2cccnc2)nc1Cl [Compound F70, N1-(3-Chloro-1-(pyridin-3-yl)-1H-pyrazol-4-yl)-N4-(cyclopropylmethyl)-N1-ethylsuccinamide] | 80 to 100 | 80 to 100 | – | –
8 | CCN(C(=O)C1CN(C(=O)C(F)(F)F)C1)c1cn(-c2cccnc2)nc1Cl [FA14, N-(3-Chloro-1-(pyridin-3-yl)-1H-pyrazol-4-yl)-N-ethyl-1-(2,2,2-trifluoroacetyl)azetidine-3-carboxamide] | 80 to 100 | 80 to 100 | – | –
9 | CC(=O)N1CCC(C(=O)N(C)c2cn(-c3cccnc3)nc2Cl)CC1 [Compound F29, 1-Acetyl-N-(3-chloro-1-(pyridin-3-yl)-1H-pyrazol-4-yl)-N-methylpiperidine-4-carboxamide] | 80 to 100 | 80 to 100 | – | –
10 | CCN(C(=O)C1CCCN(C(=O)C(C)C)C1)c1cn(-c2cccnc2)nc1Cl (stereo not shown) [FA3, N-(3-Chloro-1-(pyridin-3-yl)-1H-pyrazol-4-yl)-N-ethyl-1-isobutylylpiperidine-3-carboxamide] | 80 to 100 | 80 to 100 | – | –
11 | CCN(C(=O)C(C)C/C(C)=N/OCCC1CC1(F)F)c1cn(-c2cccnc2)nc1Cl (stereo not shown) [FA58, (E)-N-(3-Chloro-1-(pyridin-3-yl)-1H-pyrazol-4-yl)-4-((2-(2,2-difluorocyclopropyl)ethoxy)imino)-N-ethyl-2-methylpentanamide] | 80 to 100 | – | – | –
12 | CCN(C(=O)CCNC(=O)CC1CC1)c1cn(-c2cccnc2)nc1Cl [Compound F75, N-(3-Chloro-1-(pyridin-3-yl)-1H-pyrazol-4-yl)-3-(2-cyclopropylacetamido)-N-ethylpropanamide] | 80 to 100 | 80 to 100 | – | –
13 | CCN(C(=O)C(C)C/C(C)=N\OCCC1CC1(F)F)c1cn(-c2cccnc2)nc1Cl (stereo not shown) [FA57, (Z)-N-(3-Chloro-1-(pyridin-3-yl)-1H-pyrazol-4-yl)-4-((2-(2,2-difluorocyclopropyl)ethoxy)imino)-N-ethyl-2-methylpentanamide] | 80 to 100 | 0 to 80 | – | –
14 | CCN(C(=O)CCCC1CN(CC2CC2(F)F)C1=O)c1cn(-c2cccnc2)nc1Cl (stereo not shown) [Compound F104, N-(3-Chloro-1-(pyridin-3-yl)-1H-pyrazol-4-yl)-4-(1-((2,2-difluorocyclopropyl)methyl)-2-oxoazetidin-3-yl)-N-ethylbutanamide] | 80 to 100 | 80 to 100 | – | –
15 | CCN(C(=O)CC1CN(Cc2ccc(C(F)(F)F)nc2)C1=O)c1cn(-c2cccnc2)nc1Cl (stereo not shown) [Compound F117] | 80 to 100 | 80 to 100 | – | –
16 | CCN(C(=O)CCl)c1cn(-c2cccnc2)nc1Cl [CA2, 2-Chloro-N-[3-chloro-1-(3-pyridyl)pyrazol-4-yl]-N-ethyl-acetamide] | 0 to 80 | 80 to 100 | – | –
17 | O=C(CCC(=O)N(CC1CC1)c1cn(-c2cccnc2)nc1Cl)N1CCCC1 [Compound F95, N-(3-Chloro-1-(pyridin-3-yl)-1H-pyrazol-4-yl)-N-(cyclopropylmethyl)-4-oxo-4-(pyrrolidin-1-yl)butanamide] | 0 to 80 | 0 to 80 | – | –
18 | CCN(C(=O)COC(C)=O)c1cn(-c2cccnc2)nc1Cl [FA72, 2-((3-Chloro-1-(pyridin-3-yl)-1H-pyrazol-4-yl)(ethyl)amino)-2-oxoethyl acetate] | 0 to 80 | 80 to 100 | – | –
19 | CCN(C(=O)CC/C(C)=N/OCC1CC(F)(F)C1)c1cn(-c2cccnc2)nc1Cl [FA21, (E/Z)-N-(3-Chloro-1-(pyridin-3-yl)-1H-pyrazol-4-yl)-4-(((3,3-difluorocyclobutyl)methoxy)imino)-N-ethylpentanamide] | 0 to 80 | – | – | –
20 | CCN(C(=O)CC/C(C)=N/OCc1noc(C(C)(C)C)n1)c1cn(-c2cccnc2)nc1Cl [FA23, (E/Z)-4-(((5-(tert-Butyl)-1,2,4-oxadiazol-3-yl)methoxy)imino)-N-(3-chloro-1-(pyridin-3-yl)-1H-pyrazol-4-yl)-N-ethylpentanamide] | 0 to 80 | – | – | –
21 | CCN(C(=O)CC/C(C)=N/OCc1c(C)noc1C)c1cn(-c2cccnc2)nc1Cl [FA25, (E/Z)-N-(3-Chloro-1-(pyridin-3-yl)-1H-pyrazol-4-yl)-4-(((3,5-dimethylisoxazol-4-yl)methoxy)imino)-N-ethylpentanamide] | 0 to 80 | – | – | –
22 | C=CCC(C)C(=O)N(CC)c1cn(-c2cccnc2)nc1Cl (stereo not shown) [CA1, N-[3-Chloro-1-(3-pyridyl)pyrazol-4-yl]-N-ethyl-2-methyl-pent-4-enamide] | 80 to 100 | – | – | –
23 | CC(C)(C)[Si](C)(C)N1CC(CC(=O)O)C1=O (stereo not shown) [Compound C3, 2-(1-(tert-butyldimethylsilyl)-2-oxoacetidin-3-yl)acetic acid] | – | – | 0 to 80 | –
24 | CC(C)(C)[Si](C)(C)N1CC(CCC(=O)O)C1=O (stereo not shown) [Compound C4, 3-(1-(tert-Butyldimethylsilyl)-2-oxoazetidin-3-yl)propanoic acid] | – | – | 0 to 80 | –
